Type in all cases: cell-based, mouse
Experiment [1] concerns murine osteoclast. Put plainly: Frequency of occurrence of apoptosis in murine osteoclast. Particulars: 7 days, one hundred cells with two or more nuclei observed, control 4.0. As to the method:
By a method according to the report by Takahashi et al. (Endocrinology, Vol.122, pp.1373-1382, 1988), osteoclast was prepared. More specifically, a female SLC:ICR mouse of age 7 weeks was bled and killed to death, under anesthesia with pentobarbital sodium (25 mg/kg, intraperitoneal administration), and from the mouse; her femoral bone was resected. Both the ends were cut, to rinse off the […] into α-MEM (Gibco) (1 ml). […] 0.5 ml of the cell suspension was inoculated in a 24-well microtiter plate. To the wells was added 100 ng/ml parathyroid hormone (Sigma Chemical Co.) for culturing in 5 % CO2/95 % air at 37 °C for 2 days. […] Herein, three plates were used per one concentration of each drug. […] After rinsing in PBS, the apoptosis cells were detected by using an ApopTagPlus Insitu Apoptosis Detection kit peroxidase (Oncor, Gaithersburg, MD, USA) and a TSA-direct kit (GreenFISH, NEN Life Science Products, Boston, MA). Simultaneously, the smear sample was stained with a 20 µg/ml propidium iodide (Sigma Chemical Co.) solution containing 50 U/ml RNase, at room temperature for 15 minutes, to stain the nucleus. One hundred cells with two or more nuclei were observed under a cofocal laser scanning type fluorescence microscope (MRC-1000, BioRad), to determine the number of apoptosis-positive cells developed: The results are shown in Table 5.

Experiment [2] deals with murine osteoclast. The experiment in a line: Pit formation by murine osteoclast on ivory disks. The conditions noted are these: 3 days culture on ivory disk, control 0.16. As to the method:
After an ICR mouse of age 13 days was bled to death under anesthesia (pentobarbital sodium), bilateral femoral bones were resected. In an α-MEM culture medium (Gibco), the femoral bones were cut into pieces with a pair of bone scissors for 5 minutes, and the resulting pieces were agitated with a vortex mixer for 30 seconds. The cell suspension was centrifuged (1000 g, 2 min., 15 °C), and the resulting supernatant was discarded. The precipitate was suspended in an α-MEM culture medium, to adjust the suspension to a cell number of 1×10^7 cells/ml.
A purchased ivory piece was processed into a disk of a diameter of 5.5 mm and a thickness of 200 µm, by using a precision low-speed cutter (manufactured by BUEHLER) and a cut blade. The disk was then treated under ultrasonication in distilled water, and was immersed in an α-MEM culture medium (culture medium) supplemented with 10 % bovine fetal serum (Dai-Nippon Pharmaceuticals, Co.) treated with charcoal. The resulting each disk was placed in each well of a 96-well culture plate (Falcon), to which was added 100 µl of the drug solution. The osteoclast suspension was inoculated at 1×10^6 cells(100µl) thereon, for culturing at 37 °C in 5 % CO2/95 % air for 3 days. All the drugs were adjusted to final concentrations of 10^-11, 10^-10 and 10^-9 M. Additionally, five samples per each concentration were experimented.
Absorbency was determined by calculating a phargocytized area on the bone. More specifically, the ivory piece after the treatment with the drugs was wiped with gauze, rinsed with an ultrasonication machine for 30 minutes, and stained with an acid hematoxylin solution (Sigma Chemical Co., Ltd.) for 5 minutes. The piece was then rinsed in distilled water, and the phargocytized absorption area was measured with an image analyzer (Luzex, Nireco) at 100 magnification. Nine different parts were counted per each ivory piece, to calculate the average.

For a further experiment, the system named is cAMP. Put plainly: cAMP content in murine osteoblast (time-resolved fluorometry). Particulars: Fig.1. As to the method:
According to the method by Johansen, et al. (Journal Bone and Mineral Research, Vol.7, pp.501-509, 1992), osteoblast was collected from the femoral bones of a female SLC : ICR mouse of age 15 weeks. Under anesthesia with pentobarbital sodium (25 mg/kg, intraperitoneal administration), postcava was cut to bleed and kill the animal to death. Then, bilateral femoral bones were resected. This bone was cut with a pair of bone scissors, to remove the bone marrow with a micro-loop. The inner face of the bone was rubbed off with a sharp blade. The resulting matter was agitated in a 10 % collagenase solution (Nitta gelatin) at 37 °C for 20 minutes, and to the resulting mixture was added a culture medium (an MEM culture medium supplemented with 10 % charcoal-treated bovine fetal serum; manufactured by Nissui Pharmaceutical, Co. Ltd.) prior to centrifugation (300×g, 5 minutes and 20 °C). The resulting cells were dispersed in a fresh culture medium and then inoculated on a plastic culture dish (diameter of 35 mm, Primaria (Falcon)). […] Osteoblast was identified by using alkali phosphatase staining as an osteoblast marker. For recovering osteoblast from an animal after ovariectomy, ovariectomy was carried out at age 11 weeks, and the animal was fed for the following 4 weeks, prior to the same treatment. 1×10^4 cells/ml osteoblast suspension (100 µl), a culture medium (890 µl) and a drug solution (10 µl) were added into each well of a plastic 24-well culture plate (Falcon), for culturing at 37 °C in 5 % CO2/95 % air for 24 hours, and then, the resulting culture was centrifuged (300 ×g, 5 minutes, 20°C) to recover the supernatant, which was defined as a cytokine assay sample. […] For experiments, furthermore, three dishes per each group were used. […] After rinsing with a DELFIA rinse solution, an enhancer reagent (100 µl) was added, for agitation at room temperature for 5 minutes, to determine the fluorescence intensity with a time-resolved fluorometer. Based on a preliminarily prepared standard curve, cAMP content was calculated.

The next experiment has as its system TNF-α. Put plainly: TNF-α release from murine osteoblast (culture supernatant cytokine assay). The conditions noted are these: 24 hours culture.
The mark [3] stands for this setting: doses of 10^-11, 10^-10 and 10^-9 M.
Where [4] appears, read: osteoblast of non-treated mouse, 10^-9 M, control 23.5.
Where [5] appears, read: osteoblast of non-treated mouse, 10^-10 M, control 23.5.
The mark [6] stands for this setting: osteoblast of non-treated mouse, 10^-11 M, control 23.5.
[7] abbreviates: osteoblast of ovariectomized mouse, 10^-9 M, control 45.0.
Setting [8] is: osteoblast of ovariectomized mouse, 10^-10 M, control 45.0.
The mark [9] stands for this setting: osteoblast of ovariectomized mouse, 10^-11 M, control 45.0.

Marks after values point to notes of the source that are not given here.

Procedure for TNF-α: According to the method by Johansen, et al. (Journal Bone and Mineral Research, Vol.7, pp.501-509, 1992), osteoblast was collected from the femoral bones of a female SLC : ICR mouse of age 15 weeks. Under anesthesia with pentobarbital sodium (25 mg/kg, intraperitoneal administration), postcava was cut to bleed and kill the animal to death. Then, bilateral femoral bones were resected. This bone was cut with a pair of bone scissors, to remove the bone marrow with a micro-loop. The inner face of the bone was rubbed off with a sharp blade. The resulting matter was agitated in a 10 % collagenase solution (Nitta gelatin) at 37 °C for 20 minutes, and to the resulting mixture was added a culture medium (an MEM culture medium supplemented with 10 % charcoal-treated bovine fetal serum; manufactured by Nissui Pharmaceutical, Co. Ltd.) prior to centrifugation (300×g, 5 minutes and 20 °C). The resulting cells were dispersed in a fresh culture medium and then inoculated on a plastic culture dish (diameter of 35 mm, Primaria (Falcon)). At 37 °C in 5 % CO2/95% air, the cells were cultured for 24 hours, and the attached cells were recovered in a 0.25 % trypsin solution to prepare a cell suspension of 1×10^4 cells/ml. Osteoblast was identified by using alkali phosphatase staining as an osteoblast marker. For recovering osteoblast from an animal after ovariectomy, ovariectomy was carried out at age 11 weeks, and the animal was fed for the following 4 weeks, prior to the same treatment.
As a control substance, furthermore, MPA and danazol were used after they were dissolved and diluted in DMSO. DMSO was used as a solvent control.
1×10^4 cells/ml osteoblast suspension (100 µl), a culture medium (890 µl) and a drug solution (10 µl) were added into each well of a plastic 24-well culture plate (Falcon), for culturing at 37 °C in 5 % CO2/95 % air for 24 hours, and then, the resulting culture was centrifuged (300 ×g, 5 minutes, 20°C) to recover the supernatant, which was defined as a cytokine assay sample. The final concentrations of the drug were 10^-11, 10^-10 and 10^-9 M. For experiments, furthermore, three dishes per each group were used.
Using SMRART ™ (Pharmacia Biotech, Uppsala, Sweden), the supernatant was concentrated by about 10 fold, after the termination of culturing. The level of cytokine in the sample was assayed by using assay kits of murine IL-1β, IL-6 and TNF-α (Cytoscreen™, BioSource International, Camarillo, Calif. CA, USA) and europium-labeled streptoavidin (Pharmacia Biotech).

In the case of `C#C[C@]1(O)CC[C@H]2[C@@H]3CCC4=Cc5oncc5C[C@]4(C)[C@H]3CC[C@@]21C` [Danazol, danazol], the “frequency of apoptosis occurrence in murine osteoclast (number of apoptosis-positive cells)” value (shortened to “frequency of apoptosis occurrence”) in the experiment with murine osteoclast [1] (10^-9 M) came to 3.3; in the experiment with murine osteoclast [1] (10^-10 M), 3.7; in the experiment on murine osteoclast [1] (10^-11 M) it was 4.0. The “pit formation due to murine osteoclast (phargocytized absorption area)” value (shortened to “pit formation due to murine osteoclast”) is 0.16 in the experiment with murine osteoclast [2] (10^-9 M), 0.15 in the experiment on murine osteoclast [2] (10^-10 M) and 0.16 in the experiment on murine osteoclast [2] (10^-11 M). For the same compound, the “cAMP content in murine osteoblast” value in the experiment on cAMP (setting [3]) is “did not affect”. Moreover, the TNF-α in the experiment with TNF-α (setting [4]) is 26.1** pg/ml; in the experiment with TNF-α (setting [5]) it was 24.3 pg/mL; with TNF-α (setting [6]) it was 24.0 pg/mL; in the experiment with TNF-α (setting [7]) it was 47.5** pg/ml; in the experiment on TNF-α (setting [8]), 45.3 pg/mL; with TNF-α (setting [9]), 45.3 pg/mL.
For the compound `C[C@]12CCC3=C4CCC(=O)C=C4CC[C@H]3[C@@H]1CC[C@@]2(O)CC#N` [Dienogest, 17 α-cyanomethyl-17β-hydroxy-estra-4,9(10)-dien-3-one], the “frequency of apoptosis occurrence” value is recorded as 16.3** in the experiment on murine osteoclast [1] (10^-9 M), 5.0 in the experiment with murine osteoclast [1] (10^-10 M) and 3.7 in the experiment on murine osteoclast [1] (10^-11 M). Also, the “pit formation due to murine osteoclast” value in the experiment with murine osteoclast [2] (10^-9 M) is 0.10**; in the experiment with murine osteoclast [2] (10^-10 M), 0.15; in the experiment with murine osteoclast [2] (10^-11 M), 0.15. In addition, in the experiment on cAMP (at a concentration of 10^-9 M or more), the “cAMP content in murine osteoblast” value is on record as “significantly increased”. Further, the TNF-α in the experiment on TNF-α (setting [4]) was 14.8** pg/ml; in the experiment on TNF-α (setting [5]), 24.4 pg/mL; in the experiment on TNF-α (setting [6]) it was 24.7 pg/mL; with TNF-α (setting [7]), 22.3** pg/ml; with TNF-α (setting [8]), 29.8** pg/ml; with TNF-α (setting [9]) it was 44.4 pg/mL.
For `CC(=O)O[C@]1(C(C)=O)CC[C@H]2[C@@H]3C[C@H](C)C4=CC(=O)CC[C@]4(C)[C@H]3CC[C@@]21C` [MPA, medroxyprogesterone acetate], the “frequency of apoptosis occurrence” value with murine osteoclast [1] (10^-9 M) is given as 5.0; in the experiment with murine osteoclast [1] (10^-10 M), 3.7; in the experiment on murine osteoclast [1] (10^-11 M) it was 4.0. The “pit formation due to murine osteoclast” value in the experiment with murine osteoclast [2] (10^-9 M), in the experiment with murine osteoclast [2] (10^-10 M) and in the experiment on murine osteoclast [2] (10^-11 M) was 0.16 in each case. The “cAMP content in murine osteoblast” value in the experiment on cAMP (setting [3]) was “did not affect”. In addition, the TNF-α in the experiment with TNF-α (setting [4]) was 31.4** pg/ml; in the experiment on TNF-α (setting [5]), 25.3 pg/mL; with TNF-α (setting [6]) it was 25.5 pg/mL; with TNF-α (setting [7]) it was 47.6* pg/ml; in the experiment on TNF-α (setting [8]) it was 46.1 pg/mL; with TNF-α (setting [9]) it was 44.6 pg/mL.

The values above are taken from patent EP1043331A1, “BONE-RESORPTIVE CYTOKINE INHIBITOR CONTAINING DIENOGEST AS THE ACTIVE INGREDIENT” (MOCHIDA PHARMACEUTICAL CO., LTD., priority 1997, dated 1999).
